# Test results from ChEMBL document CHEMBL5034031, “Discovery of Next-Generation Tropomyosin Receptor Kinase Inhibitors for Combating Multiple Resistance Associated with Protein Mutation” (J Med Chem, 2021).
# Key:
# [1] = AUC(0 to infinity) in Beagle dog at 5 mg/kg, ig measured upto 24 hrs by LC-MS/MS analysis; format: ADME, organism-based, Canis lupus familiaris; set-up: route […], dose 5 mg/kg, time <=24; conditions: in vivo, po
# [2] = biological target: NT-3 growth factor receptor (Homo sapiens, UniProt Q16288, G623R)
# [3] = biological target: Tyrosine-protein kinase JAK1 (Homo sapiens) (UniProt P23458); experiment: Inhibition of JAK1 (unknown origin) at 1 uM relative to control
# [4] = biological target: T1, High affinity nerve growth factor receptor (Homo sapiens, UniProt P04629); experiment: Inhibition of TRKA (unknown origin) at 1 uM relative to control
# [5] = Clearance in Beagle dog at 1 mg/kg, iv measured upto 24 hrs by LC-MS/MS analysis; format: ADME, organism-based, Canis lupus familiaris; conditions: in vivo
# [6] = biological target: Serine/threonine-protein kinase DCLK2 (Homo sapiens) (UniProt Q8N568); experiment: Inhibition of DCK2 (unknown origin) at 1 uM relative to control
# [7] = biological target: Serine/threonine-protein kinase PLK1 (Homo sapiens) (UniProt P53350); experiment: Inhibition of PLK1 (unknown origin) at 1 uM relative to control
# [8] = biological target: Mitogen-activated protein kinase 3 (Homo sapiens) (UniProt P27361); experiment: Inhibition of ERK1 (unknown origin) at 1 uM relative to control
# [9] = Metabolic stability in human liver microsomes assessed as half life at 1 uM measured upto 90 mins in presence of NADPH regenerating system by LC-MS/MS analysis; format: ADME, Microsome
# [10] = Clearance in Beagle dog at 5 mg/kg, ig measured upto 24 hrs by LC-MS/MS analysis; format: ADME, organism-based, Canis lupus familiaris; conditions: in vivo, po
# [11] = biological target: Misshapen-like kinase 1 (Homo sapiens) (UniProt Q8N4C8); experiment: Inhibition of MINK1 (unknown origin) at 1 uM relative to control
# Chain of Misshapen-like kinase 1 (Homo sapiens) (Q8N4C8 whole entry, looked up, the tested form may be a part): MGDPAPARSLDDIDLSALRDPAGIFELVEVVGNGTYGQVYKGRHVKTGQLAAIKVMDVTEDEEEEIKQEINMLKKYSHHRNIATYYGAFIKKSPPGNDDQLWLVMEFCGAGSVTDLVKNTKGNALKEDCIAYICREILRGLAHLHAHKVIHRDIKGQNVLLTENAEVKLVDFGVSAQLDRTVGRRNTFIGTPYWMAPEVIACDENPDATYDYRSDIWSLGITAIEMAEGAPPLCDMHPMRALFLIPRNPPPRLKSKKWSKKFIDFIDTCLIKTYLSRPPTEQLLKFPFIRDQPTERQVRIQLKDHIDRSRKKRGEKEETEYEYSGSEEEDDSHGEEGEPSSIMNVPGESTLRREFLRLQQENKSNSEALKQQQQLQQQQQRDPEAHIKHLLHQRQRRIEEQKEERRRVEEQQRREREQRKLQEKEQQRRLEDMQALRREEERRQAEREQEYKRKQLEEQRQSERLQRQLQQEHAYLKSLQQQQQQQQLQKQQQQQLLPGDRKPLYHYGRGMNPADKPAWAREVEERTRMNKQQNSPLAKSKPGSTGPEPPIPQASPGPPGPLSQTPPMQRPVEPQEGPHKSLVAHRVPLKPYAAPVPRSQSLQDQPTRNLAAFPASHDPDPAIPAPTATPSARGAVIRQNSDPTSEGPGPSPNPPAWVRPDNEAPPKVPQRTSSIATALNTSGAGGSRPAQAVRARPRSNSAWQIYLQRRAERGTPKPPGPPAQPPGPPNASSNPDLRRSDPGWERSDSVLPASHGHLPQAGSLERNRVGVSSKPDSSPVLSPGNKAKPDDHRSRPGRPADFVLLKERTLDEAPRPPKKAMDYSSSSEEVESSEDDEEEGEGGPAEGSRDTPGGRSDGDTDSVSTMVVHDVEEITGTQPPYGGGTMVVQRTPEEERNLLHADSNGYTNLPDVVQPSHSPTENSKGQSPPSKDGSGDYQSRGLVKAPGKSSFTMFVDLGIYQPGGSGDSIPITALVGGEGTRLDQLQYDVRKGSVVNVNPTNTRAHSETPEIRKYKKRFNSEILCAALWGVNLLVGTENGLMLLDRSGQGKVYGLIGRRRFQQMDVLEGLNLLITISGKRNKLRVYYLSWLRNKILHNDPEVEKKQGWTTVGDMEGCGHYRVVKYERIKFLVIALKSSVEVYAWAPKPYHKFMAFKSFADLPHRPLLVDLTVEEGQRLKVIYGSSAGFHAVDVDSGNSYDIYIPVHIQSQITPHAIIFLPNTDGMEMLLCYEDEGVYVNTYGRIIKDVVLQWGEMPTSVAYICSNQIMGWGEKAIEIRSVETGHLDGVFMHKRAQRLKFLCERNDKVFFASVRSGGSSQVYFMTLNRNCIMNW
# [12] = Toxicity in BALB/c mouse xenografted with mouse BAF3 cells harboring TMP3 fused wild type TRKA assessed as mortality at 15 mg/kg, po administered twice daily for 12 to […] consecutive days; format: organism-based; conditions: in vivo, time 12-14 day
# BaF3 [13] = experiment: animal or person; format: functional; conditions: Mus musculus, BaF3, po; dose 100 mg/kg; time 12-14 day; read-out: TGI
# [14] = biological target: Homeodomain-interacting protein kinase 1 (Homo sapiens) (UniProt Q86Z02); experiment: Inhibition of HIPK1 (unknown origin) at 1 uM relative to control
# [15] = Volume of distribution in Sprague-Dawley rat 1 mg/kg, iv measured upto 24 hrs by LC-MS/MS analysis; format: ADME, organism-based; conditions: in vivo, read-out: Vz
# [16] = Oral bioavailability in Sprague-Dawley rat at 5 mg/kg measured upto 24 hrs by LC-MS/MS analysis; format: ADME, organism-based; conditions: in vivo
# [17] = Toxicity in BALB/c mouse xenografted with mouse BAF3 cells harboring TMP3 fused wild type TRKA assessed as body weight loss at 15 mg/kg, po administered twice daily for 12 to 14 consecutive days; format: organism-based; conditions: in vivo, time 12-14 day
# [18] = biological target: RAC-alpha serine/threonine-protein kinase (Homo sapiens) (UniProt P31749); experiment: Inhibition of AKT1 (unknown origin) at 1 uM relative to control
# [19] = Toxicity in BALB/c nude mouse xenografted with mouse BAF3 cells harboring TMP3 fused TRKA G595R mutant assessed as mortality at 30 mg/kg, po administered twice daily for 12 to […] consecutive days; format: organism-based; conditions: in vivo, time 12-14 day
# [20] = biological target: Serine/threonine-protein kinase Chk1 (Homo sapiens) (UniProt O14757); experiment: Inhibition of CHK1 (unknown origin) at 1 uM relative to control
# [21] = biological target: Serine/threonine-protein kinase pim-1 (Homo sapiens) (UniProt P11309); experiment: Inhibition of PIM1 (unknown origin) at 1 uM relative to control
# Chain of Serine/threonine-protein kinase pim-1 (Homo sapiens) (P11309 whole entry, looked up): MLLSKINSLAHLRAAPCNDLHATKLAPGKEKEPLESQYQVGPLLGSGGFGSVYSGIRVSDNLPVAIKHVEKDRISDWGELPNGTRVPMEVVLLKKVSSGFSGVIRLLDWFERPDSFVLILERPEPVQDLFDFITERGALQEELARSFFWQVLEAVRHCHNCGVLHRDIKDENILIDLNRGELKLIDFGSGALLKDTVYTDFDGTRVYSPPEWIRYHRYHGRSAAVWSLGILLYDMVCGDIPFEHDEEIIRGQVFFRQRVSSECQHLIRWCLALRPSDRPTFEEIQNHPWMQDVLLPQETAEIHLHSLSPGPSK
# [22] = biological target: Insulin-like growth factor 1 receptor (Homo sapiens) (UniProt P08069); experiment: Inhibition of IGF1R (unknown origin) at 1 uM relative to control
# [23] = biological target: Tyrosine-protein kinase ZAP-70 (Homo sapiens) (UniProt P43403); experiment: Inhibition of ZAP70 (unknown origin) at 1 uM relative to control
# [24] = biological target: High affinity nerve growth factor receptor (Homo sapiens, UniProt P04629, G595R)
# [25] = Cmax in Beagle dog at 5 mg/kg, ig measured upto 24 hrs by LC-MS/MS analysis; format: ADME, organism-based, Canis lupus familiaris; set-up: route […], dose 5 mg/kg, time <=24; conditions: in vivo, po
# [26] = Toxicity in BALB/c mouse xenografted with mouse BAF3 cells harboring ETV6 fused TRKC G623R mutant assessed as body weight loss at 15 to 30 mg/kg, po administered twice daily for 12 to 14 consecutive days; format: organism-based; conditions: in vivo, dose lower 15 mg/kg, time lower 12 day, dose upper 30 mg/kg, time upper 14 day
# [27] = biological target: Proto-oncogene tyrosine-protein kinase ROS (Homo sapiens) (UniProt P08922); experiment: Inhibition of ROS1 (unknown origin) at 1 uM relative to control
# BaF3 [28] = format: functional, cell-based; conditions: Mus musculus, BaF3, 72 h
# [29] = Volume of distribution in Beagle dog at 1 mg/kg, iv measured upto 24 hrs by LC-MS/MS analysis; format: ADME, organism-based, Canis lupus familiaris; conditions: in vivo, read-out: Vz
# [30] = biological target: ALK tyrosine kinase receptor (Homo sapiens) (UniProt Q9UM73); experiment: Inhibition of ALK (unknown origin) at 1 uM relative to control
# Chain of ALK tyrosine kinase receptor (Homo sapiens) (Q9UM73 19-1620 limits assumed): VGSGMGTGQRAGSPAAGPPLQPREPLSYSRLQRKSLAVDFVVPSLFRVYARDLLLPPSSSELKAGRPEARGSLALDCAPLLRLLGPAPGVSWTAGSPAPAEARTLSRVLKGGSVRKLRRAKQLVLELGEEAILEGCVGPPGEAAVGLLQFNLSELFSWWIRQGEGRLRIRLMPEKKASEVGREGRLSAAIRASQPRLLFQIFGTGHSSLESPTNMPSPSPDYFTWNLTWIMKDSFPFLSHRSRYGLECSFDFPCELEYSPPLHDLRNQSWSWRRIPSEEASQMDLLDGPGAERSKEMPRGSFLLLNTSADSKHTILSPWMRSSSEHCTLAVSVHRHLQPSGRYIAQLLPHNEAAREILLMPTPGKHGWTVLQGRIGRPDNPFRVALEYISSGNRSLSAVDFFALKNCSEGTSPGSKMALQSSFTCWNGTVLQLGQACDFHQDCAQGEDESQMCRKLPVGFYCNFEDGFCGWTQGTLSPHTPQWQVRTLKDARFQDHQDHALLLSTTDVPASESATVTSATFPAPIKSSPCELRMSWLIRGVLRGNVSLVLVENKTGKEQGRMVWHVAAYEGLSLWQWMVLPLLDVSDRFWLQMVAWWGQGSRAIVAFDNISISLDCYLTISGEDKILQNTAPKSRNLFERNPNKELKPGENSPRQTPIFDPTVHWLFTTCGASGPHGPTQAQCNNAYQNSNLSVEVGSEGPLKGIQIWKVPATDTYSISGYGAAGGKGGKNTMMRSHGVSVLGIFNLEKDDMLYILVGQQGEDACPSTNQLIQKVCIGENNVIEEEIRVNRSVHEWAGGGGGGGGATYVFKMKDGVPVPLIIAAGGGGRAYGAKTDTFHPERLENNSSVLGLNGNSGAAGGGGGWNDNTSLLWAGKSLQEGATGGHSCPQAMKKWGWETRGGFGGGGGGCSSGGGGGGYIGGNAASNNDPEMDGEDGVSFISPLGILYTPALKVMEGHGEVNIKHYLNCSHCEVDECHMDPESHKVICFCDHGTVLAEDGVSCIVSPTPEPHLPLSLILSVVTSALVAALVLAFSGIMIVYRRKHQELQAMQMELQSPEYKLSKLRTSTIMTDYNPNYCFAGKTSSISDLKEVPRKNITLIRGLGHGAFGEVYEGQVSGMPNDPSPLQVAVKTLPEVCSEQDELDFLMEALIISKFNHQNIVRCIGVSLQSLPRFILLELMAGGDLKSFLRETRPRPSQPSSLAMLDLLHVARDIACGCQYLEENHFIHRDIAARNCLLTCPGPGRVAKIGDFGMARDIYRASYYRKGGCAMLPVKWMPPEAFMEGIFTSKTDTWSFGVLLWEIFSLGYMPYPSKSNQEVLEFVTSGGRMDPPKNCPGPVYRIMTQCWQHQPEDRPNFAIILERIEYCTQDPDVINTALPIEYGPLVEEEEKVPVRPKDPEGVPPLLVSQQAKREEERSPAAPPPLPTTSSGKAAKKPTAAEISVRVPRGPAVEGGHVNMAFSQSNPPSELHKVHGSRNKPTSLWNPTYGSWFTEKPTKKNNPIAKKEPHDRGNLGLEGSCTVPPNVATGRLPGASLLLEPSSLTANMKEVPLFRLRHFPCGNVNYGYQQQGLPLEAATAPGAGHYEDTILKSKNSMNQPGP
# [31] = biological target: PAS domain-containing serine/threonine-protein kinase (Homo sapiens) (UniProt Q96RG2); experiment: Inhibition of PASK (unknown origin) at 1 uM relative to control
# [32] = Clearance in Sprague-Dawley rat at 1 mg/kg, iv measured upto 24 hrs by LC-MS/MS analysis; format: ADME, organism-based; conditions: in vivo
# [33] = biological target: T1, High affinity nerve growth factor receptor
# [34] = biological target: Epidermal growth factor receptor (Homo sapiens) (UniProt P00533); experiment: Inhibition of EGFR (unknown origin) at 1 uM relative to control
# hERG (KCNH2) = hERG (KCNH2) (Homo sapiens, UniProt Q12809); experiment: Inhibition of hERG at 10 uM relative to control
# Chain of hERG (KCNH2) (Q12809 whole entry): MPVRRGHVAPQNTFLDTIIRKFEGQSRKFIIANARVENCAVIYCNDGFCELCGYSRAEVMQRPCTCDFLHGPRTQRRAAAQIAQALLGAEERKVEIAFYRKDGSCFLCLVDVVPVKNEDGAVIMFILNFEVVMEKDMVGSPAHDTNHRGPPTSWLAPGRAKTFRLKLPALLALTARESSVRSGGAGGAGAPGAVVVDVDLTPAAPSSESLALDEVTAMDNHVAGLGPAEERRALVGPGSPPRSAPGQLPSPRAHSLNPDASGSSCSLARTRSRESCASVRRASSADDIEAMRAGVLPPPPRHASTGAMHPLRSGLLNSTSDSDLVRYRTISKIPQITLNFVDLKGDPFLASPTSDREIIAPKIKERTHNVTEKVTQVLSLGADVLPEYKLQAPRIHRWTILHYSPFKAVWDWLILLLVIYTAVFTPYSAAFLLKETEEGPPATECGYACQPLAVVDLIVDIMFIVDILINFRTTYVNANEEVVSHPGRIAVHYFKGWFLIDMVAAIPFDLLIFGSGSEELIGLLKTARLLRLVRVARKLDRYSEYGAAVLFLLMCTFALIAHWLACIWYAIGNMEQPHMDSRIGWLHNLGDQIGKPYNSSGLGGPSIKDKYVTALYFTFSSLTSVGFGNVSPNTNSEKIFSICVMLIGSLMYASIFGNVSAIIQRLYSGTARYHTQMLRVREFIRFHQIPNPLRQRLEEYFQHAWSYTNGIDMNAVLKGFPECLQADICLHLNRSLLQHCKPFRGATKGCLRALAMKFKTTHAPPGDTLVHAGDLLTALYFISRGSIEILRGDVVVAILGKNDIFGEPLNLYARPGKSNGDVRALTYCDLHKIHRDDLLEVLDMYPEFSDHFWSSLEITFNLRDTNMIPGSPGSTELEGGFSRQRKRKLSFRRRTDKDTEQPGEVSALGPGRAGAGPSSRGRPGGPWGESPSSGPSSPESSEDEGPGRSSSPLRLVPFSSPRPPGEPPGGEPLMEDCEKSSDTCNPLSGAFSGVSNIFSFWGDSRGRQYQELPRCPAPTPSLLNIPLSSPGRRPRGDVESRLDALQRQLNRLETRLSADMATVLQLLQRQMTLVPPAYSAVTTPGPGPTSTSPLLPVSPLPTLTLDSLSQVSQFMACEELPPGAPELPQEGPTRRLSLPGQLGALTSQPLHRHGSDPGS
# [35] = AUC(0 to infinity) in Sprague-Dawley rat at 1 mg/kg, iv measured upto 24 hrs by LC-MS/MS analysis; format: ADME, organism-based; set-up: route intravenous, dose 1 mg/kg, time <=24; conditions: in vivo
# [36] = biological target: Cytoplasmic tyrosine-protein kinase BMX (Homo sapiens) (UniProt P51813); experiment: Inhibition of BMX (unknown origin) at 1 uM relative to control
# [37] = biological target: Calcium/calmodulin-dependent protein kinase type II subunit beta (Homo sapiens) (UniProt Q13554); experiment: Inhibition of CAMK2 (unknown origin) at 1 uM relative to control
# Chain of Calcium/calmodulin-dependent protein kinase type II subunit beta (Homo sapiens) (Q13554 whole entry): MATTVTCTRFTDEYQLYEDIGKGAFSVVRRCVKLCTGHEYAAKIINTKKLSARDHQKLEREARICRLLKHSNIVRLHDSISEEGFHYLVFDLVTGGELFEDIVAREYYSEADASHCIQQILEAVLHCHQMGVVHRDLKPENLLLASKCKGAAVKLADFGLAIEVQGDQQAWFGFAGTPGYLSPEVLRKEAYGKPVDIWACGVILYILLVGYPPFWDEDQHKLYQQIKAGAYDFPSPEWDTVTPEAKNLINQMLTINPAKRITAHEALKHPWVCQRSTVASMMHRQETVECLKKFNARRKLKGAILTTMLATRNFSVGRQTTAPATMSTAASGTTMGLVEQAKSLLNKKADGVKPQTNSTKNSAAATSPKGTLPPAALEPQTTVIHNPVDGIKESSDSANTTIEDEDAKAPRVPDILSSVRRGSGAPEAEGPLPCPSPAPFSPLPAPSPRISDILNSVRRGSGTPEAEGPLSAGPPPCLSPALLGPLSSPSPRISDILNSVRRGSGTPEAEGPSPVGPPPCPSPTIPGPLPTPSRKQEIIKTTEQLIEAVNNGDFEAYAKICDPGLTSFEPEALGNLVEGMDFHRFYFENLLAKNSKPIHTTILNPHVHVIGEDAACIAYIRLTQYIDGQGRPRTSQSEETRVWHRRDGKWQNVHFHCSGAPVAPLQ
# [38] = biological target: Proto-oncogene tyrosine-protein kinase Src (Homo sapiens) (UniProt P12931); experiment: Inhibition of SRC (unknown origin) at 1 uM relative to control
# [39] = biological target: Maternal embryonic leucine zipper kinase (Homo sapiens) (UniProt Q14680); experiment: Inhibition of MELK (unknown origin) at 1 uM relative to control
compound,measurement,setting,value
C[C@@H](Nc1ccn2ncc(-c3cnn(CCO)c3)c2n1)c1cc(F)ccc1OCC(F)F,AUC(0-inf),[1],9630 ng·h/mL
same,IC50,[2],0.6 nM
same,inhibition,[3],> 80%
same,inhibition,[4],> 80%
same,clearance,[5],7.83 mL/min/kg
same,inhibition,[6],< 50%
same,inhibition,[7],< 50%
same,inhibition,[8],< 50%
same,half-life at 1 µM,[9],5.25 h
same,CL/F,[10],9.17 mL/min/kg
same,inhibition,[11],< 50%
same,Activity,[12],Non-Toxic
same,inhibition in vivo at 100 mg/kg,BaF3 [13],99%
same,inhibition,[14],< 50%
same,Vd,[15],40 L/kg
same,bioavailability,[16],49%
same,Activity,[17],Non-Toxic
same,inhibition,[18],< 50%
same,Activity,[19],Non-Toxic
same,inhibition,[20],< 50%
same,inhibition,[21],< 50%
same,inhibition,[22],< 50%
same,inhibition,[23],< 50%
same,IC50,[24],0.2 nM
same,Cmax,[25],1570 ng/mL
same,Activity,[26],Non-Toxic
same,inhibition,[27],> 80%
same,IC50,BaF3 [28],10.9 nM
same,Vd,[29],4.94 L/kg
same,inhibition,[30],> 80%
same,inhibition,[31],< 50%
same,clearance,[32],83.3 mL/min/kg
same,IC50,[33],0.7 nM
same,inhibition,[34],< 50%
same,inhibition at 10 µM,hERG (KCNH2),23%
same,AUC(0-inf),[35],213 ng·h/mL
same,inhibition,[36],> 80%
same,inhibition,[37],< 50%
same,inhibition,[38],< 50%
same,inhibition,[39],< 50%
